Measured values from US20240342111A1, “ISOMER-SPECIFIC NEUROPROTECTIVE EFFECT OF NATURAL RESERVATROL” (priority 2021, published 2024).

Experiments:
[1] = system: Rat cortical neurons; assay: DNA damage (etoposide)-induced neurotoxicity, MTT assay; type: cell-based; details: 5 μM etoposide 24 hours, pre-treatment 16 hours
[2] = system: Rat cortical neurons; assay: Oxidative stress (H2O2)-induced toxicity, viability; type: cell-based; details: 400 μM H2O2 24 hours, pre-treatment 16 hours
[3] = system: OGG1; assay: Immunoblot for OGG1 protein; type: cell-based, rat; details: 5-50 μM, 4 hours
[4] = system: Rat cortical neurons; assay: trans-RSV in combination with cis-RSV, viability by MTT assay; type: cell-based; details: cis-RSV 10-50 μM in combination with trans-RSV, 48 hours
Method: (§1) Cell viability was assessed and quantified using MTT assay.
Rat cortical neurons (DIV 10-11) were exposed to different treatments after seeding 20,000 cells/well in 96-well plates. Cell viability was then assessed at 48 hours after the initial exposure to NMDA. 3-[4,5-dimethylthiazole-2-yl]-2,5-diphenyltetrazolium bromide (MTT) assays were used to assess change in cell viability. Cultured rat cortical neurons were incubated with MTT (0.5 mg/mL). In the MTT assay, after 2 h incubation, the insoluble purple product formazan resulting from the reduction of MTT by NAD(P)H-dependent oxidoreductases present in cells with viable mitochondria was solubilized in dimethyl sulfoxide at room temperature, under agitation, and protected from light. The percentage of MTT reduced as measured by the difference between the absorbances at 570 nm read in a spectrophotometer (Spectramax 190R Molecular Devices, UK). The percentage of reduction of MTT was calculated comparing the difference of the absorbance at 570 of each sample. Results are presented as percentage of control (wells incubated with the vehicle).

[5] = system: HPF1; assay: Immunoblot for HPF1 protein; type: cell-based, rat; details: high dose 25 μM, up to 16 hr, time-dependent
Excerpt: Ac-K56-H3 is a marker of genomic stability, see Driscoll, R., Hudson, A. & Jackson, S. P. Yeast Rtt109 promotes genome stability by acetylating histone H3 on lysine 56. Science 315, 649-652, doi:10.1126/science.1135862 (2007), and DNA damage, see Tjeertes, J. V., Miller, K. M. & Jackson, S. P. Screen for DNA-damage-responsive histone modifications identifies H3K9Ac and H3K56Ac in human cells. EMBO J 28, 1878-1889, doi:10.1038/emboj.2009.119 (2009), and inhibition of PARP1 causes the downregulation of RAD51, see Hegan, D. C. et al. Inhibition of poly(ADP-ribose) polymerase down-regulates BRCA1 and RAD51 in a pathway mediated by E2F4 and p130. […] The western blot images of the protein levels of HPF1 was quantified using ImageJ.
Cultured neurons (DIV 9-10) were washed once with cold 1×PBS and lysed in cell lysis buffer (20 mM Tris-HCl (pH 7.5), 150 mM NaCl, 1 mM Na2EDTA, 1 mM EGTA, 1% Triton, 2.5 mM sodium pyrophosphate, 1 mM beta-glycerophosphate, 1 mM Na3VO4, 1 μg/ml leupeptin supplemented with protease inhibitor). […] Lysates were quantified using Bio-Rad Protein Assay, and an equal amount of protein was loaded onto a 4 to 12% gradient gel (NuPAGE-Invitrogen). […] Quantification for the western blots was done using ImageJ (Version 1.53c).

[6] = system: Rat cortical neurons transfected with PARP1 siRNA; assay: siRNA knockdown of PARP1, trans-RSV neurotoxicity, MTT assay; type: cell-based; details: trans-RSV 50 μM, 72 hours
Method: as §1
Primary cortical neuron cultures were obtained from E18 Sprague Dawley rats' cortices, which were dissected in Hibernate E (BrainBits) and dissociated using the Neural Tissue Dissociation kit (Miltenyi Biotec). For this, minced cortices were incubated in a pre-warmed enzyme mix at 37° C. for 15 min; tissues were then triturated and strained using a 40 μm cell strainer. After washing and centrifugation, neurons were seeded in 50 μg/ml poly-D-Lysine (Sigma Aldrich) coated tissue culture plates. NBActive-1 medium (BrainBits) supplemented with 100 U/ml of Penicillin-Streptomycin (Life Technologies), 2 mM L-Glutamine (Life Technologies), and 1 X N21 supplement (R&D Systems) was used as culture medium. Control (AM4635), TyrRS (s443), PARP1 (s130207) siRNA for transfection were obtained from Invitrogen. […]
Rat cortical neurons (DIV 10-11) were exposed to different treatments after seeding 20,000 cells/well in 96-well plates. Cell viability was then assessed at 48 hours after the initial exposure to NMDA. […] The percentage of MTT reduced as measured by the difference between the absorbances at 570 nm read in a spectrophotometer (Spectramax 190R Molecular Devices, UK). The percentage of reduction of MTT was calculated comparing the difference of the absorbance at 570 of each sample. […]

[7] = system: Ac-K56-H3; details: diabetes patients, 500 mg/day; cited from earlier work

Row | SMILES | protection from DNA damage-induced neurotoxicity [1] | protection from toxicity induced by oxidative stress [2] | OGG1 protein levels [3] | trans-RSV-mediated neurotoxicity [4] | HPF1 protein levels [5] | effect of PARP1 siRNA knockdown on neurotoxicity [6] | levels of Ac-K56-H3 in PBMC [7]
1 | Oc1ccc(/C=C\c2cc(O)cc(O)c2)cc1 [cis-RSV, cis-resveratrol] | protects neurons from DNA damage-induced neurotoxicity | protects neurons from toxicity induced by oxidative stress | downregulated both the protein levels of OGG1 and the levels of 8-oxo-dG | rescued trans-RSV-mediated neurotoxicity |  |  | 
2 | Oc1ccc(/C=C/c2cc(O)cc(O)c2)cc1 [trans-RSV, trans-resveratrol] |  |  |  |  | downregulated the protein levels of the histone poly-ADP-ribosylation factor 1 (HPF1) | protected against trans-RSV-mediated neurotoxicity | decreased levels of Ac-K56-H3
